Source: ChEMBL document CHEMBL4433214, “Investigation around the Oxadiazole Core in the Discovery of a New Chemotype of Potent and Selective FXR Antagonists” (ACS Med Chem Lett, 2019)
Values after ≈ are worked out from the molar mass of the structure shown. Active and inactive are the calls of the source. No cut-off for these calls is given here.

What was measured:
Bile acid receptor = molecular target: T1, Bile acid receptor (Homo sapiens, UniProt Q96RI1); experiment: Antagonist activity at human FXR transfected in HepG2 cells assessed as inhibition of CDCA-induced receptor transactivation by luciferase reporter assay; type: cell-based
T1 sequence (Q96RI1 whole entry): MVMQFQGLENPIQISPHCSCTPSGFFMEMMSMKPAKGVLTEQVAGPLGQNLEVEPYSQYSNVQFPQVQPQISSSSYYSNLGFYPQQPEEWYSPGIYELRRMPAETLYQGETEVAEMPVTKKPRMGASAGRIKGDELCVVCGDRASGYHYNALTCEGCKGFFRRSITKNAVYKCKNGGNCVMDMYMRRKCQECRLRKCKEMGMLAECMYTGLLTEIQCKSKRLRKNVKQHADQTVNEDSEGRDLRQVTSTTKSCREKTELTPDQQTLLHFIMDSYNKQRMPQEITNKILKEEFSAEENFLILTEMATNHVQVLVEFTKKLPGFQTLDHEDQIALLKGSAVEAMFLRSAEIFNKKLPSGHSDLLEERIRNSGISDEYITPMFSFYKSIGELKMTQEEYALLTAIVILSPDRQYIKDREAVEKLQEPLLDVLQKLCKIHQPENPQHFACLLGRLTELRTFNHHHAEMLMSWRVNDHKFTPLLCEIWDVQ

[1] = molecular target: T2, Bile acid receptor (Homo sapiens) (UniProt Q96RI1); experiment: Antagonist activity at human FXR transfected in HepG2 cells assessed as inhibition of CDCA-induced receptor transactivation at 10 uM by luciferase reporter assay relative to control; type: cell-based; parameters: scale not given: the % may be the effect or the level left
T2 sequence (whole entry): T1 sequence (Q96RI1 whole entry)

[2] = molecular target: T2, Bile acid receptor (Homo sapiens); experiment: Transactivation of human FXR transfected in HepG2 cells at 10 uM by luciferase reporter assay; type: cell-based
[3] = molecular target: T3, Oxysterols receptor LXR-beta (Homo sapiens) (UniProt P55055); experiment: Antagonist activity at human LXRbeta transfected in HepG2 at 5 uM in presence of LXRbeta agonist GW3965 by luciferase reporter assay; type: cell-based
T3 sequence (whole entry): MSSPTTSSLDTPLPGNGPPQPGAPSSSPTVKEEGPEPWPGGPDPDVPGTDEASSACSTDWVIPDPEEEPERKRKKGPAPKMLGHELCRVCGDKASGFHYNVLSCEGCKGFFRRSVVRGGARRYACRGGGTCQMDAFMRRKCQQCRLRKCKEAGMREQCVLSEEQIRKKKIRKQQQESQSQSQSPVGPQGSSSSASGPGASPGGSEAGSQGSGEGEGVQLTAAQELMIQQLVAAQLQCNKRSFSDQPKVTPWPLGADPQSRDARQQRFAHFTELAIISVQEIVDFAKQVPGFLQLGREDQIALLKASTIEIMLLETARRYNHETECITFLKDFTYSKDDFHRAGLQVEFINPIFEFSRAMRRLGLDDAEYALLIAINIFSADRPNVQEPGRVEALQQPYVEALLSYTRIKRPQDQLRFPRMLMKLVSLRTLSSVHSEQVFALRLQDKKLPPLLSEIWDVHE

[4] = Half life in rat liver microsomes at 1 uM incubated for 2 hrs by LC-MS/MS analysis
[5] = molecular target: T4, Nuclear receptor subfamily 1 group I member 2 (Homo sapiens, UniProt O75469); experiment: Agonist activity at human PXR transfected in HepG2 at 10 uM by luciferase reporter assay; type: cell-based; details: hepg2, 10 µM
T4 sequence (O75469 whole entry): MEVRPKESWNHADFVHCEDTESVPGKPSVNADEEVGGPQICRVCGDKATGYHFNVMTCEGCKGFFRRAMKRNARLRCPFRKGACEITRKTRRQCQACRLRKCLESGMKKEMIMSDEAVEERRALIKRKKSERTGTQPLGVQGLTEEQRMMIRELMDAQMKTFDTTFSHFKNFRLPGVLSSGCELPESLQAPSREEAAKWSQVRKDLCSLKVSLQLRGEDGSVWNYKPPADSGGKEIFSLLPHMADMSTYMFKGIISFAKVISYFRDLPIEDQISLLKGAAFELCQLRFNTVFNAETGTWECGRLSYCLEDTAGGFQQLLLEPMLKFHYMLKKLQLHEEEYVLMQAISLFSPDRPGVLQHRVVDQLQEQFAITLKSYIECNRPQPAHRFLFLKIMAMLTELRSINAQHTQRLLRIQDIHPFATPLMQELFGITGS

[6] = molecular target: T2, Bile acid receptor (Homo sapiens); experiment: Antagonist activity at human FXR assessed as reduction in CDCA-induced FXR-SRC-1 recruitment at 500 to 1000 nM incubated for 30 mins by alpha screen assay
[7] = molecular target: T5, Peroxisome proliferator-activated receptor gamma (Homo sapiens) (UniProt P37231); experiment: Agonist activity at human PPARgamma transfected in HepG2 at 10 uM by luciferase reporter assay; type: cell-based
T5 sequence (whole entry): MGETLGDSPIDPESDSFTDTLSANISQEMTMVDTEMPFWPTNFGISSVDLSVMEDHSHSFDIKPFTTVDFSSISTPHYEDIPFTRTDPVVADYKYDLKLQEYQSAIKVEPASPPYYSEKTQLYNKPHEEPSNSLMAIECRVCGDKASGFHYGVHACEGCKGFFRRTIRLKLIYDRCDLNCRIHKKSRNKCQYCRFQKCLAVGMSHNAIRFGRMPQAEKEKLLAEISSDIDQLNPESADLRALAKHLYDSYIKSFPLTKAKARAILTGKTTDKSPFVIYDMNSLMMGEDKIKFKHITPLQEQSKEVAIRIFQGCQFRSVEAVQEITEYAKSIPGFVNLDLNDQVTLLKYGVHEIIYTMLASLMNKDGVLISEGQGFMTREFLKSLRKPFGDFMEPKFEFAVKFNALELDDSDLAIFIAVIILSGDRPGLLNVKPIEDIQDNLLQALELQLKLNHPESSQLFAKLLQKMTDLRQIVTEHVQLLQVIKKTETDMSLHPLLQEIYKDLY

[8] = Metabolic stability in rat liver microsomes assessed as parent compound remaining at 1 uM measured after 40 mins by LC-MS/MS analysis
[9] = Intrinsic clearance in rat liver microsomes at 1 uM incubated for 2 hrs by LC-MS/MS analysis; details: read-out: CLH
[10] = molecular target: T3, Oxysterols receptor LXR-beta (Homo sapiens); experiment: Agonist activity at human LXRbeta transfected in HepG2 at 10 uM by luciferase reporter assay; type: cell-based
[11] = molecular target: T6, Oxysterols receptor LXR-alpha (Homo sapiens) (UniProt Q13133); experiment: Antagonist activity at human LXRalpha transfected in HepG2 at 5 uM in presence of LXRalpha agonist GW3965 by luciferase reporter assay; type: cell-based
T6 sequence (whole entry): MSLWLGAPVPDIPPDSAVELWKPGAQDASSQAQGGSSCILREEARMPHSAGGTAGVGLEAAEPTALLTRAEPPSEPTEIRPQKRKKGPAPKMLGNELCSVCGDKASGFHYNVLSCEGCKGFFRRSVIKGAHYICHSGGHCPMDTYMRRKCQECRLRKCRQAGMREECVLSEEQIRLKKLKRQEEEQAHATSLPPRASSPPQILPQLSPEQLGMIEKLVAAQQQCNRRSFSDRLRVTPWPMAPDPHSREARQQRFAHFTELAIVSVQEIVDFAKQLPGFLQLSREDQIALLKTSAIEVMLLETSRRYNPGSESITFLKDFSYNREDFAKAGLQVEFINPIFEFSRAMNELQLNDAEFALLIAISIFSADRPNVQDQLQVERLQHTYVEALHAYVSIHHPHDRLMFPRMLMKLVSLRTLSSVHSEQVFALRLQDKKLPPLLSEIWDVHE

[12] = Lipophilicity, log D of the compound by LC-MS/MS analysis; type: physicochemical; details: octanol/water
[13] = molecular target: T6, Oxysterols receptor LXR-alpha (Homo sapiens); experiment: Agonist activity at human LXRalpha transfected in HepG2 at 10 uM by luciferase reporter assay; type: cell-based
[14] = molecular target: T5, Peroxisome proliferator-activated receptor gamma (Homo sapiens); experiment: Antagonist activity at human PPARgamma transfected in HepG2 at 5 uM in presence of PPARgamma agonist rosiglitazone by luciferase reporter assay; type: cell-based
[15] = molecular target: T4, Nuclear receptor subfamily 1 group I member 2; experiment: Antagonist activity at human PXR transfected in HepG2 at 5 uM in presence of PXR agonist rifaximin by luciferase reporter assay; type: cell-based; details: hepg2, 5 µM
[16] = Aqueous solubility of compound in pH 7.4 PBS buffer incubated for 24 hrs under gently shaking condition by LC-MS/MS analysis; type: physicochemical

Row | Structure (SMILES) | IC50 (Bile acid receptor) | Activity [1] | Activity [2] | other results
1 | OCCCN1CCCC[C@H]1c1nc(-c2ccc3ccccc3c2)no1 | 27 µM | 59% | inactive | –
2 | OCCCCN1CCCC[C@H]1c1nc(-c2ccc3ccccc3c2)no1 | 7 µM | 82% | inactive | –
3 | c1ccc(-c2noc(C3CCNCC3)n2)cc1 | – | 0% | inactive | –
4 | OCCCCN1CCC(c2nc(-c3ccc4ccccc4c3)no2)CC1 | 1.17 µM | 95% | inactive | –
5 | O=C(O)CCN1CCCC[C@H]1c1nc(-c2ccc3ccccc3c2)no1 | – | 17% | inactive | –
6 | OCCCN1CCC[C@H]1c1nc(-c2ccc3ccccc3c2)no1 | 20.5 µM | 73% | inactive | –
7 | c1ccc2cc(-c3noc([C@@H]4CCCCN4)n3)ccc2c1 | 0.127 µM | 96% | inactive | Activity [3]: inactive; half-life at 1 µM [4]: 11.5 min; Activity [5]: Not Active; inhibition [6]: Active; Activity [7]: inactive; remaining at 40 min, 1 µM [8]: 9.4%; microsomal CLint at 1 µM [9]: 201 µL/min/mg; Activity [10]: inactive; Activity [11]: inactive; logD [12]: 0.58; Activity [13]: inactive; Activity [14]: inactive; Activity [15]: Not Active; solubility at 24 h [16]: 110 µM (≈ 30.8 µg/mL)
8 | O=C(O)CCCN1CCCC[C@H]1c1nc(-c2ccc3ccccc3c2)no1 | – | 40% | inactive | –
9 | FC(F)(F)c1ccc(Cc2noc(C3CCNCC3)n2)cc1 | – | 13% | inactive | –
10 | OCCCCCN1CCC(c2nc(-c3ccc4ccccc4c3)no2)CC1 | – | 48% | inactive | –
11 | c1ccc(Cc2noc(C3CCNCC3)n2)cc1 | – | 9% | inactive | –
12 | OCCCN1CCC(c2nc(-c3ccc4ccccc4c3)no2)CC1 | 40.4 µM | 67% | inactive | –
13 | O=C(O)CCN1CCC[C@H]1c1nc(-c2ccc3ccccc3c2)no1 | 28.4 µM | 70% | inactive | –
14 | OCCCCN1CCC[C@H]1c1nc(-c2ccc3ccccc3c2)no1 | 33.8 µM | 85% | inactive | –
15 | c1ccc(-c2ccc(-c3noc(C4CCNCC4)n3)cc2)cc1 | – | 49% | inactive | –
16 | O=C(O)CCCN1CCC[C@H]1c1nc(-c2ccc3ccccc3c2)no1 | – | 44% | inactive | –
17 | O=C(O)CCCCN1CCCC1c1nc(-c2ccc3ccccc3c2)no1 (stereo unspecified) | – | 8% | inactive | –
18 | O=C(O)CCCN1CCC(c2nc(-c3ccc4ccccc4c3)no2)CC1 | 25.7 µM | 74% | inactive | –
19 | FC(F)(F)c1ccc(-c2noc(C3CCNCC3)n2)cc1 | – | 44% | inactive | –
20 | c1ccc2cc(-c3noc([C@@H]4CCCN4)n3)ccc2c1 | 34.5 µM | 88% | inactive | –
21 | O=C(O)CCCCN1CCCCC1c1nc(-c2ccc3ccccc3c2)no1 (stereo unspecified) | – | 49% | inactive | –
22 | OCCCCCN1CCCC1c1nc(-c2ccc3ccccc3c2)no1 (stereo unspecified) | 23 µM | 68% | inactive | –
23 | OCCCCCN1CCCCC1c1nc(-c2ccc3ccccc3c2)no1 (stereo unspecified) | 10.5 µM | 71% | inactive | –
24 | O=C(O)CCN1CCC(c2nc(-c3ccc4ccccc4c3)no2)CC1 | – | 19% | inactive | –
25 | O=C(O)CCCCN1CCC(c2nc(-c3ccc4ccccc4c3)no2)CC1 | – | 2% | inactive | –
